The text below walks through data of patent US20110288086A1, “POLYCYCLIC QUINAZOLINES, PREPARATION THEREOF, AND USE THEREOF” (priority 2010, published 2011).

Assay [1] concerns PANC-1 human pancreatic cancer cells. In words: Tumor cell inhibition ratio, CCK-8 kit, PANC-1. The conditions noted are these: PANC-1, read-out: Antiproliferative effect (inhibition ratio) PANC-1.
Source text: (§1) The inhibitory activities of the compounds on tumor cells in vitro
For assay [2], the system named is Hut78 T-Lymphocytic Leukemia cells. In words: Tumor cell inhibition ratio, CCK-8 kit, Hut78. The conditions noted are these: Homo sapiens, HuT78, read-out: Antiproliferative effect (inhibition ratio) Hut-78.
Source text: as §1
Assay [3] relates to Jurkat E6-1 human T-cell lymphoma. In words: Tumor cell inhibition ratio, CCK-8 kit, Jurkat E6-1. The following applies: Jurkat E6.1, read-out: Antiproliferative effect (inhibition ratio) E6-1.
Source text: as §1
Assay [4] deals with K562 human chronicity marrow leukemic cells. In words: Tumor cell inhibition ratio, CCK-8 kit, K562. The following applies: K562, read-out: Antiproliferative effect (inhibition ratio) K562.
Source text: as §1
For assay [5], the system named is A549 human lung cancer cells. In words: Tumor cell inhibition ratio, CCK-8 kit, A549. The following applies: A549, read-out: Antiproliferative effect (inhibition ratio) A549.
Source text: as §1
Assay [6] relates to MDA-MB-435s human breast carcinoma cells. In words: Tumor cell inhibition ratio, CCK-8 kit, MDA-MB-435s. The following applies: read-out: Antiproliferative effect (inhibition ratio) 435s.
Source text: as §1
Assay [7] deals with Hep3B2.1-7 human hepatoma carcinoma cells. In words: Tumor cell inhibition ratio, CCK-8 kit, Hep3B. The following applies: read-out: Antiproliferative effect (inhibition ratio) Hep3B.
Source text: as §1
Assay [8] has as its system PC-3 human carcinoma of prostate. In words: Tumor cell inhibition ratio, CCK-8 kit, PC-3. The conditions noted are these: read-out: Antiproliferative effect (inhibition ratio) PC-3.
Source text: as §1
Assay [9] relates to Colo320 human rectal cancer cells. In words: Tumor cell inhibition ratio, CCK-8 kit, Colo320. The following applies: COLO 320, read-out: Antiproliferative effect (inhibition ratio) Colo320.
Source text: as §1
In another assay the target is T1, aurora kinase B (Homo sapiens, UniProt Q96GD4).
T1 construct: purchased Invitrogen PV3174
T1 sequence (Q96GD4 whole entry): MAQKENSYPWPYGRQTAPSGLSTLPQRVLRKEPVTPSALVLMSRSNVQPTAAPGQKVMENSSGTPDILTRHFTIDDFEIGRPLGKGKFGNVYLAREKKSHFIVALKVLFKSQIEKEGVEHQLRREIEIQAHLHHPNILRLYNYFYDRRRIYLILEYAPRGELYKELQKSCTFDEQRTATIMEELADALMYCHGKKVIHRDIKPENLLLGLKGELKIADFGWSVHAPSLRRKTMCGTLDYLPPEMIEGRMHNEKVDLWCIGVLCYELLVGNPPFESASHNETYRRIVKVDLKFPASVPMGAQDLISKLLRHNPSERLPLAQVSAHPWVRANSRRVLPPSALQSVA
In words: Aurora kinase B inhibition in vitro (Invitrogen aurora kinase screening kit PV3174). The format is biochemical.

The next assay has as its target EGFR tyrosine kinase (Homo sapiens, UniProt P00533). In words: EGFR tyrosine kinase inhibition in vitro (Invitrogen EGFR inhibitor screening kit PV3193).

EGFR tyrosine kinase, sequence (P00533 25-1210): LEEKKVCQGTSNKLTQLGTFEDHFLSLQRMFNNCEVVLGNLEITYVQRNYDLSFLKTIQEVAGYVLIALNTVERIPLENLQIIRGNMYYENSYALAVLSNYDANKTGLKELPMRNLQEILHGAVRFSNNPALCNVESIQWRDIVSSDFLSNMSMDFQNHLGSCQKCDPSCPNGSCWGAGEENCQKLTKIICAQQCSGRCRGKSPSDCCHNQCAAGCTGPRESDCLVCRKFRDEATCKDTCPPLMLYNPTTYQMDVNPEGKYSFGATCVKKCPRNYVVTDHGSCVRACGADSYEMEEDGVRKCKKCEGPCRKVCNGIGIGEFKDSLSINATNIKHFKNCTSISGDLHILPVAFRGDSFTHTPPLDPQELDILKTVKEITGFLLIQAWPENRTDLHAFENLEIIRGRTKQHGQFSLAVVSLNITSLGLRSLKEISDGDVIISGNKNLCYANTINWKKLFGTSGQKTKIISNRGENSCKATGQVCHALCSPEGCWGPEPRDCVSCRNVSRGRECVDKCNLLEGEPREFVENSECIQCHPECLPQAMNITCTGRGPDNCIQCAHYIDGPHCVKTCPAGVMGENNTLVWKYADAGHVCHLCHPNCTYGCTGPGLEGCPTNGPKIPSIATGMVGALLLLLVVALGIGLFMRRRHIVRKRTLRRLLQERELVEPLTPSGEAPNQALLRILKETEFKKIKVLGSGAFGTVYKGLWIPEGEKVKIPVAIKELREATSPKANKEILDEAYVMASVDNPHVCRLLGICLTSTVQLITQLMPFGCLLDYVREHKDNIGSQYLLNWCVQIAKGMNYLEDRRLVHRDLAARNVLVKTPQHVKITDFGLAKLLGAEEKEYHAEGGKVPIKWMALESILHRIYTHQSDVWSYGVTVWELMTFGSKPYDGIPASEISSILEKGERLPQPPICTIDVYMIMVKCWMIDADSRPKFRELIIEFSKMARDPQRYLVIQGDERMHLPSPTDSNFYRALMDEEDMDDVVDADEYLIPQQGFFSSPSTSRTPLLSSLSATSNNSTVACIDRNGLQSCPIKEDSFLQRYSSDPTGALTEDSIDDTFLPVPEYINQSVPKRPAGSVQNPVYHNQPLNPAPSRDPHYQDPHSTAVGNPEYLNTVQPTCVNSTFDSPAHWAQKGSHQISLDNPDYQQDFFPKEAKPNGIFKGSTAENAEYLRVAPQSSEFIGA
Source text for EGFR tyrosine kinase: The inhibitory activities of EGFR tyrosine kinase in vitro
Erlotinib hydrochloride was used as a positive control drug.

On to `COCCOc1cc2c(cc1OCCOC)C1=Nc3ccc(OCc4cccc(F)c4)c(Cl)c3CN1C=N2` [Compound V-14, 9-chloro-10-(3-fluoro-benzyloxy)-2,3-bis(2-methoxyethoxy)-8H-quinazolino[4,3-b]quinazoline], for which the inhibition at 10 µM was 38.3% in assay [1]; 21.3% in assay [2]; 26.9% in assay [3]; 36.6% in assay [4]; 31.1% in [5]; 46.6% in [6]. The inhibition at 10 µM in assay [7] came out at 45.1%; in assay [8], 38.5%; in assay [9] it was 17.6%. Also, the inhibition at 100 µM in [1] worked out at 99.9%; in assay [2] it was 98.7%; in assay [3] it was 97.7%; in assay [4] it was 100%; in [5], 97.8%; in [6], 94.8%. The inhibition at 100 µM in assay [7] is 100%; in assay [8], 97.1%; in assay [9] it was 88%. Besides, the “The inhibition ratio of the compound on Aurora B(%)” value came to 23.2% at aurora kinase B (40 μM) and 76.9% on aurora kinase B (200 μM). The entries for the “The inhibition ratio of the compound on EGFR(%)” value on EGFR tyrosine kinase (40 μM) and on EGFR tyrosine kinase (200 μM) were 45.2% and 87.9%, respectively.

Turning to `COCCOc1cc2c(cc1OCCOC)C1=Nc3cc(O)ccc3CN1C=N2` [Compound V-18, 11-hydroxy-2,3-bis(2-methoxyethoxy)-8H-quinazolino[4,3-b]quinazoline], the inhibition at 10 µM worked out at 30% in [1]; 19.7% in [2]; 44.1% in assay [3]; 10.4% in assay [4]; 37.8% in assay [5]; 36.6% in [6]. Also, the inhibition at 10 µM stood at 40.1% in assay [7], 37% in assay [8] and 38.1% in assay [9]. Besides, the inhibition at 100 µM was 84.4% in assay [1]; 65.2% in assay [2]; 84% in [3]; 59% in assay [4]; 78.6% in [5]; 72.3% in [6]. Further, the inhibition at 100 µM in [7] came to 77.5%; in assay [8], 76.2%; in assay [9], 75.1%. In addition, the “The inhibition ratio of the compound on Aurora B(%)” value is listed as 23.2% at aurora kinase B (40 μM) and 76.9% on aurora kinase B (200 μM). Moreover, the “The inhibition ratio of the compound on EGFR(%)” value on EGFR tyrosine kinase (40 μM) was determined as 33.2%; at EGFR tyrosine kinase (200 μM), 78.8%.

On to `COCCOc1cc2c(cc1OCCOC)C1=Nc3cccc(C(F)(F)F)c3CN1C=N2` [Compound V-9, 9-trifluoromethyl-2,3-bis(2-methoxyethoxy)-8H-quinazolino[4,3-b]quinazoline], for which the inhibition at 10 µM in assay [1] stood at 11.7%; in assay [2], 19.2%; in assay [3] it was 20.4%; in [4], 34.6%; in [5], 33.7%; in assay [6], 54.9%. The values for the inhibition at 10 µM in [7], in [8] and in assay [9] were 40.1%, 16.4% and 46.3%, respectively. Further, the inhibition at 100 µM worked out at 55.6% in [1]; 70.5% in [2]; 65.4% in assay [3]; 79.9% in assay [4]; 87.5% in assay [5]; 80.7% in assay [6]. In addition, the inhibition at 100 µM in assay [7] was determined as 82.8%; in assay [8], 78%; in assay [9], 73.3%. Besides, the “The inhibition ratio of the compound on Aurora B(%)” value is 17.6% on aurora kinase B (40 μM) and 60.5% on aurora kinase B (200 μM). Further, the “The inhibition ratio of the compound on EGFR(%)” value amounted to 13.0% on EGFR tyrosine kinase (40 μM) and 60.3% on EGFR tyrosine kinase (200 μM).

Regarding `COCCOc1cc2c(cc1OCCOC)C1=Nc3cccc(C#N)c3CN1C=N2` [Compound V-7, 9-cyano-2,3-bis(2-methoxyethoxy)-8H-quinazolino[4,3-b]quinazoline], the inhibition at 10 µM is 40.7% in [1]; 32.1% in [2]; 34.6% in [3]; 24.3% in assay [4]; 27.7% in assay [5]; 38% in assay [6]. For the same compound, the results for the inhibition at 10 µM in [7], in assay [8] and in assay [9] were 40.4%, 15.9% and 42.1%, respectively. Moreover, the inhibition at 100 µM is 86.6% in assay [1]; 62.4% in assay [2]; 75.4% in assay [3]; 61.7% in assay [4]; 83.6% in assay [5]; 81.4% in assay [6]. Also, the inhibition at 100 µM in assay [7] is 89.5%; in assay [8], 90.3%; in [9], 81.4%. The “The inhibition ratio of the compound on Aurora B(%)” value amounted to 23.2% at aurora kinase B (40 μM) and 91.7% on aurora kinase B (200 μM). Besides, the “The inhibition ratio of the compound on EGFR(%)” value on EGFR tyrosine kinase (40 μM) amounted to 36.2%; at EGFR tyrosine kinase (200 μM) it was 80.5%.

For `C#Cc1cccc2c1CN1C=Nc3cc(OC)c(OC)cc3C1=N2` [Compound V-31, 9-ethynyl-2,3-dimethoxy-8H-quinazolino[4,3-b]quinazoline], the inhibition at 10 µM worked out at 46.5% in assay [1]; 41.1% in assay [2]; 21.8% in assay [3]; 37.5% in assay [4]; 28.8% in [5]; 50.6% in assay [6]. In addition, the inhibition at 10 µM worked out at 31.9% in [7], 29.4% in assay [8] and 30.8% in assay [9]. The inhibition at 100 µM in [1] came to 96.4%; in assay [2], 72.2%; in assay [3] it was 84.2%; in [4], 85%; in [5], 32.8%; in assay [6], 85.1%. Also, the inhibition at 100 µM is 62.2% in [7], 81.7% in [8] and 92.8% in assay [9]. Also, the results for the “The inhibition ratio of the compound on Aurora B(%)” value at aurora kinase B (40 μM) and at aurora kinase B (200 μM) were 10.6% and 66.5%, respectively. In addition, the “The inhibition ratio of the compound on EGFR(%)” value is 30.6% on EGFR tyrosine kinase (40 μM) and 76.5% on EGFR tyrosine kinase (200 μM).
